The results in this text go back to ChEMBL document CHEMBL3351468, “Tritium-labelled isovaleryl-RYYRIK-NH2 as potential antagonist probe for ORL1 nociceptin receptor” (Bioorg Med Chem, 2014).

Test [1] has as its target T1, Nociceptin receptor (Homo sapiens, UniProt P41146). The test is described as follows: Partial agonist activity at human ORL1 receptor expressed in African green monkey COS7 cells after 90 mins by topcount analysis. Type of test: cell-based. The note with it: COS-7.
Test [2] concerns the target T1, Nociceptin receptor. The test is described as follows: Displacement of [3H]]nociceptin from human ORL1 receptor low affinity binding site expressed in African green monkey COS7 cells after 90 mins by topcount analysis. In general terms: In a radioligand displacement assay an active substance lowers the binding of a labelled ligand.
Test [3] has as its target T1, Nociceptin receptor. The test is described as follows: Displacement of [3H]]nociceptin from human ORL1 receptor high affinity binding site expressed in African green monkey COS7 cells after 90 mins by topcount analysis.
For test [4], the target named is T1, Nociceptin receptor. Kind of test: Displacement of [3H]isoVa-RYYRIK-NH2 from human ORL1 receptor expressed in African green monkey COS7 cells after 90 mins by topcount analysis. Type of test: cell-based, COS-7.
Test [5] addresses T1, Nociceptin receptor. The test is described as follows: Binding affinity to human ORL1 receptor expressed in African green monkey COS7 cells assessed per mg protein after 90 mins by Scatchard plot analysis. Type of test: cell-based, COS-7.
Test [6] has as its target T1, Nociceptin receptor. The test is described as follows: Displacement of [3H]]nociceptin from human ORL1 receptor expressed in African green monkey COS7 cells after 90 mins by topcount analysis. Type of test: cell-based, COS-7.

T1 sequence (P41146 whole entry): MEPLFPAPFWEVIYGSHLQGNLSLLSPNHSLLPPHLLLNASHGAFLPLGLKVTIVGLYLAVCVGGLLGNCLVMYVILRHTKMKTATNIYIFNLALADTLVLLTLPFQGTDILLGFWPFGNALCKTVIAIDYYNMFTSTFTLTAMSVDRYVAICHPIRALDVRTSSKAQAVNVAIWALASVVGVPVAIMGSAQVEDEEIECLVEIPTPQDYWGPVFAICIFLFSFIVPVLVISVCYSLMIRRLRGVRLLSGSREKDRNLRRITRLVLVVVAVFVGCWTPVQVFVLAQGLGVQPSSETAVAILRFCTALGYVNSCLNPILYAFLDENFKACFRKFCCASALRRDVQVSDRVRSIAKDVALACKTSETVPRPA

On Nociceptin receptor [1], `CC[C@H](C)[C@H](NC(=O)[C@H](CCCNC(=N)N)NC(=O)[C@H](Cc1ccc(O)cc1)NC(=O)[C@H](Cc1ccc(O)cc1)NC(=O)[C@H](CCCNC(=N)N)NC(=O)CC(C)C)C(=O)N[C@@H](CCCCN)C(N)=O` had an Activity of 0%. In addition, the 50% inhibitory concentration (IC50) at Nociceptin receptor [2] turned out to be 8.51 nM; at Nociceptin receptor [3], 0.033 nM; at Nociceptin receptor [4], 2.15 nM.

`[3H]C(C(=O)N[C@@H](CCCNC(=N)N)C(=O)N[C@@H](Cc1ccc(O)cc1)C(=O)N[C@@H](Cc1ccc(O)cc1)C(=O)N[C@@H](CCCNC(=N)N)C(=O)N[C@H](C(=O)N[C@@H](CCCCN)C(N)=O)[C@@H](C)CC)C([3H])(C)C` (stereo partly specified): on Nociceptin receptor [5], the Kd was determined as 1.21 nM.

For `CC[C@H](C)[C@H](NC(=O)[C@H](CCCN=C(N)N)NC(=O)[C@H](Cc1ccc(O)cc1)NC(=O)[C@H](Cc1ccc(O)cc1)NC(=O)[C@H](CCCN=C(N)N)NC(C)=O)C(=O)N[C@@H](CCCCN)C(N)=O`, the Activity at Nociceptin receptor [1] was found to be 60%.

Regarding `CC[C@H](C)[C@H](NC(=O)[C@H](CCCNC(=N)N)NC(=O)[C@H](Cc1ccc(O)cc1)NC(=O)[C@H](Cc1ccc(O)cc1)NC(=O)[C@H](CCCNC(=N)N)NC(=O)C(C)C)C(=O)N[C@@H](CCCCN)C(N)=O`, at Nociceptin receptor [1], the Activity came to 14%. Moreover, the IC50 at Nociceptin receptor [2] came out at 1.67 nM; at Nociceptin receptor [3], 0.059 nM.

As to `CCC(=O)N[C@@H](CCCNC(=N)N)C(=O)N[C@@H](Cc1ccc(O)cc1)C(=O)N[C@@H](Cc1ccc(O)cc1)C(=O)N[C@@H](CCCNC(=N)N)C(=O)N[C@H](C(=O)N[C@@H](CCCCN)C(N)=O)[C@@H](C)CC`, on Nociceptin receptor [1], the Activity stood at 46%. In addition, the half-inhibitory concentration (IC50) at Nociceptin receptor [6] was 1.39 nM.

Broadly, the IC50 is the concentration at which inhibition is half-maximal. The Kd is the equilibrium constant for the complex coming apart.
